Results published in PMC9774391 (ACS Omega, 2022).

Columns and labels:
Cytotoxicity test (MTT) = format: cell-based; conditions: NIH/3T3 mouse embryonic fibroblast cells (ATCC CRL-1658), NIH/3T3 mouse fibroblast healthy cell line
Method: The NIH/3T3 cells were incubated according to the manufacturer’s recommendations. In 96-well plates, NIH/3T3 cells were seeded at a density of 1 × 10^4 cells per well. The MTT test was conducted in line with the previously mentioned standards.[19],[22],[23],[28],[30]

BChE = BChE (Homo sapiens, UniProt P06276); assay: biochemical
BChE, sequence (P06276 29-602): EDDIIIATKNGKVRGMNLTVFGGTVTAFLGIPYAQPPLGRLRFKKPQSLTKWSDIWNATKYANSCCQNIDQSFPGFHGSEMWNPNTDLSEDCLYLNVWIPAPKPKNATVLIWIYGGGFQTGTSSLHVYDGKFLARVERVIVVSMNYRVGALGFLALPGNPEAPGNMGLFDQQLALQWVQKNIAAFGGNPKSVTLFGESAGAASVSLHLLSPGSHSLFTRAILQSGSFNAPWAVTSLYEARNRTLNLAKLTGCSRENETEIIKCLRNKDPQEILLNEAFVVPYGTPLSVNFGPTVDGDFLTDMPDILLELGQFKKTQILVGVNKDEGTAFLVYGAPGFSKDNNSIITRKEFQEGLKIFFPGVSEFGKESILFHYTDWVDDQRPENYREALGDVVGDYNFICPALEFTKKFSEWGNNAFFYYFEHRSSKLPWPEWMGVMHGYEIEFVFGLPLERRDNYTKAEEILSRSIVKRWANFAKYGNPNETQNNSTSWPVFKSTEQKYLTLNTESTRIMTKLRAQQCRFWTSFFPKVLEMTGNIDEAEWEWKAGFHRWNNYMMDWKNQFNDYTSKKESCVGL
Method: (§1) According to the modified Ellman approach outlined in our team’s earlier work, the AChE and BChE inhibitory activities of the obtained compounds were evaluated.[18]−[21]

AChE [1] = biological target: T1, AChE (Homo sapiens, UniProt P22303); assay: biochemical
T1 sequence (P22303 32-614): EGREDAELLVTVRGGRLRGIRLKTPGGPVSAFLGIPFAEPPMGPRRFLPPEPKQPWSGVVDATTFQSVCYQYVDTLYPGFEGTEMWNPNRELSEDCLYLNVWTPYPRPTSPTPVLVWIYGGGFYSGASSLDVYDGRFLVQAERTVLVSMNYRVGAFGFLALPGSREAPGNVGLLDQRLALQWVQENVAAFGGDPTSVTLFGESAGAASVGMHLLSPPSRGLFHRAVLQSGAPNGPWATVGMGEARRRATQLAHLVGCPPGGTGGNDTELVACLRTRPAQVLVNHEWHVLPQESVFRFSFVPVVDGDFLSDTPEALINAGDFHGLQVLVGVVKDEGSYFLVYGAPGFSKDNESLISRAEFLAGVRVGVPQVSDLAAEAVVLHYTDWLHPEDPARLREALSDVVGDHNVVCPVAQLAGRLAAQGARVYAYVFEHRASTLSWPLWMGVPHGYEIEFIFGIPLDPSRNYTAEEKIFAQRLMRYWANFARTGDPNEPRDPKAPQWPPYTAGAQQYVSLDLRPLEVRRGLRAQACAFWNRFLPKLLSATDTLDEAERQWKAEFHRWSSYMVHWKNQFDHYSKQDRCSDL
Method: as §1

Beta Amyloid 1–42 (Aβ42) = biological target: T2, Beta Amyloid 1–42 (Aβ42) (Homo sapiens, UniProt P05067); assay: Beta Amyloid 1–42 (Aβ42) inhibitor screening assay; format: biochemical
T2 construct: The Beta Amyloid 1–42 (Aβ42) Ligand Screening Assay kit; purchased BioVision, Milpitas, CA
T2 sequence (P05067 672-713 limits assumed): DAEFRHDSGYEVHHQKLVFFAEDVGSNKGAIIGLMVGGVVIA
Source text: The Beta Amyloid 1–42 (Aβ42) Ligand Screening Assay kit (BioVision, Milpitas, CA) technique based on the fluorometric approach served as the basis for the experimental process.[21],[28],[29]

[2] = DPPH free-radical scavenging activity assay; conditions: serial dilution 10^–3–10^–9 M; read-out: IC50 on DPPH antioxidant activity
Method: This approach is based on evaluating the free-radical scavenging abilities of the stable 1,1-diphenyl-2-picrylhydrazyl (DPPH) radical. To create the DPHH solution, 9.86 mg of DPPH was weighed and diluted to 25 mL with methanol. The test wells were then filled with 100 μL of the DPPH solution and 100 μL of the test solutions. Only 200 μL of methanol was used for the blank reading, while the control reading required the usage of 100 μL each of methanol and the DPPH solution. Following incubation, a spectrophotometric measurement at 517 nm was carried out.[26],[27]

MAO-B = biological target: T3, MAO-B (Homo sapiens, UniProt P27338); assay: In vitro MAO-B inhibition assay (fluorometric); format: biochemical
T3 sequence (P27338 1-520): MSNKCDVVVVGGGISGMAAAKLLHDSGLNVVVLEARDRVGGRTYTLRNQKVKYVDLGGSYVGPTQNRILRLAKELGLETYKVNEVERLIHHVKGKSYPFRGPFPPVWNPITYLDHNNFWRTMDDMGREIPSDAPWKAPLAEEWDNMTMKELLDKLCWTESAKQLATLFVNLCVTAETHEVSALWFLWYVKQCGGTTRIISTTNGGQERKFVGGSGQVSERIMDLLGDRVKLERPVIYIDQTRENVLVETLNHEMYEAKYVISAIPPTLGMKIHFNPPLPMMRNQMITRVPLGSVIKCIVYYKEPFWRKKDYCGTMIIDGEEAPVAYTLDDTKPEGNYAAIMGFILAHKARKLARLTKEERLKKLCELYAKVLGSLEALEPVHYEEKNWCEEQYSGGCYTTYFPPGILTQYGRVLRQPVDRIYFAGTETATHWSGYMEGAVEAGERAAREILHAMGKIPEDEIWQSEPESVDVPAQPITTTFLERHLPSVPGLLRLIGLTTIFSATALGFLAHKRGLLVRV

AChE [3] = biological target: T1, AChE; assay: Enzyme kinetics on AChE (Lineweaver–Burk); format: biochemical
Method: The experimental procedures used in the kinetic investigations were identical to those used in the inhibition experiments. […]. Acetylthiocholine iodide (ATC) and butyrylthiocholine iodide (BTC) solutions were utilized as the substrates for the ChE enzymes, with serial dilutions at six different concentrations (600, 300, 150, 75, 37.5, and 18.75 μM). The tyramine substrate solution (concentrations ranging from 20 to 0.625 μM) was produced for the MAO enzymes at six different concentrations. Separate measurements were conducted both with and without an inhibitor. Using the Microsoft Office Excel 2013 program, the resulting absorbance values were compared to various substrate concentrations, and Lineweaver–Burk plots were created.[19]−[22]
The absorbance data from the experiments and the substrate concentrations were used to generate Lineweaver–Burk plots. The graphic’s x-axis stands for 1/[S] […] […]. The intersection of these four lines on the diagram was used to define the type of substrate and inhibitor reaction against the enzyme.
Reversible and irreversible inhibition of enzymes are the two categories that inhibition is commonly subdivided into. In irreversible inhibition, the inhibitor either creates a recalcitrant complex structure or establishes a covalent bond with the enzyme. […]

MAO-A = biological target: T4, MAO-A (Homo sapiens, UniProt P21397); assay: In vitro MAO-A inhibition assay (fluorometric); format: biochemical
T4 sequence (P21397 1-527): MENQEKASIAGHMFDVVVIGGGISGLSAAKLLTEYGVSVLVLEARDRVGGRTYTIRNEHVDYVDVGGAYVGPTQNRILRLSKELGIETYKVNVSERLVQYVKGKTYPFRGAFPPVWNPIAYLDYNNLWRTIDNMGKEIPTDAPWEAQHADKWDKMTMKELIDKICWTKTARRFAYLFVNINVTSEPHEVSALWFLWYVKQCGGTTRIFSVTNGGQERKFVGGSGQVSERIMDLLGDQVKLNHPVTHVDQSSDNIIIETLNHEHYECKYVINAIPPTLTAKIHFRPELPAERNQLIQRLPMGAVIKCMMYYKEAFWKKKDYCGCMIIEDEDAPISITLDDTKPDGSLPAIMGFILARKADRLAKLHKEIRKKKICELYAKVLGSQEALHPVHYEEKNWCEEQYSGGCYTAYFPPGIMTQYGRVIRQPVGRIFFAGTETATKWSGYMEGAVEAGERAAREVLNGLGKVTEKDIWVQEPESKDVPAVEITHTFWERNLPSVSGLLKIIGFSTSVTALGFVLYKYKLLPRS

CCCN(C)CC(=O)Nc1ccc(/C=C2\Cc3ccc(OC)cc3C2=O)cc1 [D29]
IC50 (Cytotoxicity test (MTT)): 73600 ± 1760 nM
inhibition at 1000 µM (BChE; 10^–3 M): 61.1 ± 0.99%
inhibition at 100 µM (BChE; 10^–4 M): 26.914 ± 0.019%
IC50 (AChE [1]): 22.4 ± 0.8 nM
inhibition at 1000 µM (AChE [1]; 10^–3 M): 97.2 ± 1.32%
inhibition at 100 µM (AChE [1]; 10^–4 M): 94.3 ± 1.46%
inhibition at 10 µM (AChE [1]; 10^–5 M): 91.8 ± 1.21%
inhibition at 1 µM (AChE [1]; 10^–6 M): 88.3 ± 1.02%
inhibition at 0.1 µM (AChE [1]; 10^–7 M): 75.6 ± 0.974%
inhibition at 0.01 µM (AChE [1]; 10^–8 M): 34.3 ± 0.857%
inhibition at 0.001 µM (AChE [1]; 10^–9 M): 20.1 ± 0.357%
inhibition at 1000 µM (Beta Amyloid 1–42 (Aβ42); 10^–3 M, read-out: % β-amyloid plaque inhibition): 80.3 ± 2.05%
inhibition at 100 µM (Beta Amyloid 1–42 (Aβ42); 10^–4 M, read-out: % β-amyloid plaque inhibition): 71.9 ± 1.88%
IC50 (Beta Amyloid 1–42 (Aβ42); read-out: IC50 on β-amyloid plaque aggregation): 124 ± 4.9 nM
IC50 [2]: 188 ± 8 nM
IC50 (MAO-B): 41.2 ± 1.8 nM
inhibition at 1000 µM (MAO-B; 10^–3 M): 91.8 ± 1.37%
inhibition at 100 µM (MAO-B; 10^–4 M): 87.6 ± 1.25%
inhibition at 10 µM (MAO-B; 10^–5 M): 82.2 ± 1.21%
inhibition at 1 µM (MAO-B; 10^–6 M): 74.2 ± 1.3%
inhibition at 0.1 µM (MAO-B; 10^–7 M): 66 ± 1.84%
inhibition at 0.01 µM (MAO-B; 10^–8 M): 40.3 ± 0.745%
inhibition at 0.001 µM (MAO-B; 10^–9 M): 20.4 ± 0.628%
type of inhibition of AChE (AChE [3]; Lineweaver–Burk plots): mixed inhibition
Ki (AChE [3]; secondary plot of Lineweaver–Burk data, read-out: steady-state inhibition constant (Ki), AChE): 18.5 nM
IC50 (MAO-A): 112 ± 4.2 nM
inhibition at 1000 µM (MAO-A; 10^–3 M): ≥ 90%
inhibition at 10 µM (MAO-A; 10^–5 M): 77.4 ± 1.13%
inhibition at 1 µM (MAO-A; 10^–6 M): 67.3 ± 1.08%
inhibition at 0.1 µM (MAO-A; 10^–7 M): 49.4 ± 0.567%
inhibition at 0.01 µM (MAO-A; 10^–8 M): 34 ± 0.422%
inhibition at 0.001 µM (MAO-A; 10^–9 M): 24.6 ± 0.328%
fold stronger MAO-A inhibition compared to moclobemide (MAO-A; ratio of IC50 values): 50 ×
